Several values for one entry are separate records, joined by “and”; a condition that tells them apart may be missing. Equal values may be shown once. Read-outs that look alike come from different tables or passages of the source.
Key:
PBMCs = test: Cell viability by trypan blue staining after 24 hours; type: cell-based, human; conditions: for Viability (dose-response): 1 participant per drug, in % (unit assumed)
How it was run: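 PBMCs from ART-suppressed donors at 6 × 10^6 cells/well were activated with CD3/28 beads and cultured with antiretrovirals plus drug in DMSO. Viability counted by trypan blue after 24 hours. Values were normalized to the activated DMSO control.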

[1] = tested on: HIV transcripts (TAR, LLTR, Pol, PolyA, TatRev); test: Latency reversal assay: cell-associated HIV transcripts (RT-ddPCR) 24 hours after anti-CD3/CD28 activation of PBMCs from ART-suppressed PWH; type: cell-based; set-up: key to TatRev: % of activated DMSO control, normalized to 1 μg total RNA; conditions: for Pol HIV transcripts (DMSO αCD3/28 = 100) / PolyA HIV transcripts (DMSO αCD3/28 = 100) / TatRev HIV transcripts (DMSO αCD3/28 = 100): αCD3/28-activated, ruxolitinib 4μM, triptolide 25-50nM, alvocidib 40nM, dinaciclib 8nM, AZD4573 8nM, quercetin 5μM, pladienolide B 10nM, isoginkgetin 25μM, herboxidiene 5nM, KRIBB11 2.5μM, tanespimycin 5μM, mithramycin A 25nM; for PolyA/LLTR / TatRev/PolyA / LLTR/TAR: DMSO+CD3/28 = 1, Fig 3B, C and D; for PolyA / TatRev: DMSO+αCD3/28 = 100, Fig 3A
How it was run: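 PBMCs from ART-suppressed people with HIV (6 × 10^6 cells/well) treated with drug in DMSO, activated with anti-CD3/CD28 beads with antiretrovirals, harvested after 24 hours. TAR, LLTR, Pol, PolyA and TatRev transcripts measured by RT-ddPCR, normalized to 1 μg total RNA, expressed as % of activated DMSO control.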

[2] = tested on: HIV transcripts (PolyA, TatRev); test: Dose-response curves of LPAs: polyadenylated and multiply spliced HIV transcripts 24 hours after activation; type: cell-based; conditions: for MS Tat-Rev (dose-response) / PolyA (dose-response): 24 hours, 1 participant per drug; for IC50: 24 h, PBMCs from 1 participant per drug
Description: The IC50 was determined based on the reduction in completed (PolyA) as well as multiply spliced (TatRev) HIV transcripts relative to activated DMSO (Table 1).
Figure 2 Dose-response curves of LPAs. Dose-response curves for each drug were generated in PBMCs from 1 ART-suppressed study participant per drug. PBMCs were aliquoted into wells at 6 × 10^6 cells/well, activated, and cultured with antiretrovirals in the presence of DMSO alone (no drug) or varying concentrations of individual drugs in DMSO. After 24 hours, the levels of polyadenylated and multiply spliced HIV transcripts were quantified by RT-ddPCR, normalized to 1 μg of total cellular RNA, and expressed as a percentage of the activated DMSO control (% of activated DMSO).

[3] = 100nM, 24 h after αCD3/28 activation, each column one participant
[4] = 10/100nM, 24 h after αCD3/28 activation, each column one participant

pladienolide B
Viability (dose-response) (PBMCs; dose 0.1 nM): 74.768
Viability (dose-response) (PBMCs; dose 1 nM): 75.444
Viability (dose-response) (PBMCs; dose 10 nM): 68.259
Cell viability (in words) (PBMCs; initial screening concentrations, Figure 1A): impact on cell viability
Viability (Fig 1A) (PBMCs; study participant 150a): 75.5 % of activated DMSO
Viability (Fig 1A) (PBMCs; study participant 152): 79.98 % of activated DMSO
LLTR HIV transcripts (DMSO+αCD3/28 = 100) [1, 3]: 105.44 and 112.17
Pol HIV transcripts (DMSO+αCD3/28 = 100) [1, 3]: 61.14 and 46.29
TatRev HIV transcripts (DMSO+αCD3/28 = 100) [1, 3]: 0
LLTR HIV transcripts (DMSO+αCD3/28 = 100) [1, 4]: 105.44 and 112.17 and 22.15 and 34.23 and 14.5 and 7.78 and 32.23
Pol HIV transcripts (DMSO+αCD3/28 = 100) [1, 4]: 61.14 and 46.29 and 2.85 and 58.11 and 12.19 and 5.03 and 29.65
PolyA HIV transcripts (DMSO+αCD3/28 = 100) [1, 4]: 25.19 and 8
TAR HIV transcripts (DMSO+αCD3/28 = 100) [1, 4]: 70.83 and 56.32 and 43.76 and 138.46
TatRev HIV transcripts (DMSO+αCD3/28 = 100) [1, 4]: 0 (4×) and 2.98 and 6.21 and 11.47
HIV transcriptional completion, ratio PolyA/LLTR ([1]; 24 hours, compared with activated DMSO, Figure 3C): reduced
HIV multiple splicing, ratio TatRev/PolyA ([1]; 24 hours, compared with activated DMSO, Figure 3D): reduce HIV multiple splicing
Reduction of multiply spliced or completed HIV transcripts in drug screen (selection as candidate LPA) ([1]; initial screening, 2 participants, 24 hours): more than 50%
Completed (PolyA) HIV transcripts, median relative to activated DMSO, initial screening ([1]; initial screening, 2 participants, 24 hours, Supplemental Figure 2): 17%
Pol HIV transcripts (DMSO αCD3/28 = 100) ([1]; participant 2027): 56.14
PolyA HIV transcripts (DMSO αCD3/28 = 100) ([1]; participant 2027): 45.13
TatRev HIV transcripts (DMSO αCD3/28 = 100) ([1]; participant 2027): 0
Pol HIV transcripts (DMSO αCD3/28 = 100) ([1]; participant 2147a): 74.51
PolyA HIV transcripts (DMSO αCD3/28 = 100) ([1]; participant 2147a): 38.34
TatRev HIV transcripts (DMSO αCD3/28 = 100) ([1]; participant 2147a): 22.95
Pol HIV transcripts (DMSO αCD3/28 = 100) ([1]; participant 2161): 44.19
PolyA HIV transcripts (DMSO αCD3/28 = 100) ([1]; participant 2161): 152.38
TatRev HIV transcripts (DMSO αCD3/28 = 100) ([1]; participant 2161): 381.82
PolyA HIV transcripts (DMSO αCD3/28 = 100) ([1]; participant 2461): 53.85
Pol HIV transcripts (DMSO αCD3/28 = 100) ([1]; participant 2747): 21.03
PolyA HIV transcripts (DMSO αCD3/28 = 100) ([1]; participant 2747): 65.33
TatRev HIV transcripts (DMSO αCD3/28 = 100) ([1]; participant 2747): 0
Pol HIV transcripts (DMSO αCD3/28 = 100) ([1]; participant 2750): 212.24
PolyA HIV transcripts (DMSO αCD3/28 = 100) ([1]; participant 2750): 74.85
TatRev HIV transcripts (DMSO αCD3/28 = 100) ([1]; participant 2750): 155
Multiply spliced HIV transcripts (TatRev) (Fig 1B) ([1]; study participant 150a, 24 hours): 0 % of activated DMSO
PolyA/LLTR ([1]; study participant 150a): 0.2389
TatRev/PolyA ([1]; study participant 150a): 0
PolyA ([1]; study participant 150a): 25.19
TatRev ([1]; study participant 150a): 0
Multiply spliced HIV transcripts (TatRev) (Fig 1B) ([1]; study participant 152, 24 hours): 0 % of activated DMSO
PolyA/LLTR ([1]; study participant 152): 0.07129
TatRev/PolyA ([1]; study participant 152): 0
PolyA ([1]; study participant 152): 8
TatRev ([1]; study participant 152): 0
PolyA/LLTR ([1]; study participant 163): 0.2589
TatRev/PolyA ([1]; study participant 163): 0
PolyA ([1]; study participant 163): 5.73
TatRev ([1]; study participant 163): 0
LLTR/TAR ([1]; study participant 1379): 0.1778
PolyA/LLTR ([1]; study participant 1379): 0.4115
TatRev/PolyA ([1]; study participant 1379): 0
PolyA ([1]; study participant 1379): 3.2
TatRev ([1]; study participant 1379): 0
LLTR/TAR ([1]; study participant 2147b): 0.4833
PolyA/LLTR ([1]; study participant 2147b): 0.2849
TatRev/PolyA ([1]; study participant 2147b): 0.3058
PolyA ([1]; study participant 2147b): 9.75
TatRev ([1]; study participant 2147b): 2.98
LLTR/TAR ([1]; study participant 2256): 0.2575
PolyA/LLTR ([1]; study participant 2256): 0.2751
TatRev/PolyA ([1]; study participant 2256): 1.556
PolyA ([1]; study participant 2256): 3.99
TatRev ([1]; study participant 2256): 6.21
LLTR/TAR ([1]; study participant 5557): 0.2328
PolyA/LLTR ([1]; study participant 5557): 0.5006
TatRev/PolyA ([1]; study participant 5557): 0.7112
PolyA ([1]; study participant 5557): 16.13
TatRev ([1]; study participant 5557): 11.47
MS Tat-Rev (dose-response) ([2]; dose 0.1 nM): 34.26 % of activated DMSO
PolyA (dose-response) ([2]; dose 0.1 nM): 47.95 % of activated DMSO
MS Tat-Rev (dose-response) ([2]; dose 1 nM): 17.07 % of activated DMSO
PolyA (dose-response) ([2]; dose 1 nM): 43.55 % of activated DMSO
MS Tat-Rev (dose-response) ([2]; dose 10 nM): 0.76 % of activated DMSO
PolyA (dose-response) ([2]; dose 10 nM): 4 % of activated DMSO
IC50 ([2]; reduction in PolyA HIV transcripts relative to activated DMSO, read-out: Completed (PolyA) IC50): 0.18 nM
IC50 ([2]; reduction in TatRev HIV transcripts relative to activated DMSO, read-out: Multiply spliced (TatRev) IC50): 0.06 nM

From PMC11466185, “Mechanisms and efficacy of small molecule latency-promoting agents to inhibit HIV reactivation ex vivo” (JCI Insight, 2024)
